Measured values published in patent US7494984B2, “Substituted imidazo[1,2-a]pyrimidines as HIV viral DNA integrase inhibitors” (priority 2005, dated 2009).

Tests used:
HIV-integrase = target: T1, HIV-integrase (Human immunodeficiency virus type 1 group M subtype B, UniProt P12497); assay: HIV-Integrase Inhibition Activity (SPA strand transfer assay); assay type: biochemical; settings: recombinant integrase, biotin labeled substrate DNA on SPA beads, P33 labeled target DNA; read-out: Activity (IC50 class, HIV-integrase inhibition)
T1 construct: Recombinant integrase (0.26 ng) was incubated with the beads
Protocol: HIV-Integrase Inhibition Activity. To evaluate in-vitro activity against HIV-integrase, 5 pmole of biotin labeled substrate DNA was bound to 100 μg of Streptavidin coated PVT SPA beads (Amersham Pharmacia Biotech). Recombinant integrase (0.26 ng) was incubated with the beads for 90 min at 37° C. Unbound enzyme was removed by washing the complex followed by addition of inhibitors and 0.1 fmol of P33 labeled target DNA. The reaction was stopped by adding EDTA to a final concentration of 10 mM. Samples were counted in TopCountNXT (Packard) and the CPM was used as a measure of integration. The reaction condition was as described in A. Engelman and R. Craigie, J. Virol. 69, 5908-5911 (1995). The sequences of substrate and target DNA were described in Nucleic Acid Research 22,1121-1122 (1994). Activity equal to A refers to a compound having IC50=0.005 to 0.010 μM while B and C denote compounds having IC50=0.010 to 0.030 μM and IC50>0.030 μM respectively.

Structure (SMILES)	IC50 (HIV-integrase) [nM]	melting point
COCCN1CCn2c1nc(C(=O)NCc1ccc(F)cc1)c(O)c2=O [Example 29, N-(4-Fluorobenzyl)-6-hydroxy-1-(2-methoxyethyl)-5-oxo-1,2,3,5-tetrahydroimidazo[1,2-a]pyrimidine-7-carboxamide]	10 to 30	166 °C
CCCCN1CCn2c1nc(C(=O)NCc1ccc(F)cc1C(=O)NC)c(O)c2=O [Example 13, N-(4-Fluoro-2-(methylcarbamoyl)benzyl)-1-butyl-6-hydroxy-5-oxo-1,2,3,5-tetrahydroimidazo[1,2-a]pyrimidine-7-carboxamide]	10 to 30	175 to 177 °C
O=C(NCc1ccc(F)cc1)c1nc2n(c(=O)c1O)CCN2CCO [Example 30, N-(4-Fluorobenzyl)-6-hydroxy-1-(2-hydroxyethyl)-5-oxo-1,2,3,5-tetrahydroimidazo[1,2-a]pyrimidine-7-carboxamide]	10 to 30	203 °C
CCCCN1CCn2c1nc(C(=O)NCc1ccc(F)cc1-n1cnc(C)n1)c(O)c2=O [Example 15, N-(4-Fluoro-2-(3-methyl-1H-1,2,4-triazol-1-yl)benzyl)-1-butyl-6-hydroxy-5-oxo-1,2,3,5-tetrahydroimidazo[1,2-a]pyrimidine-7-carboxamide]	5 to 10	214 °C
O=C(NCc1ccc(F)cc1-n1cncn1)c1nc2n(c(=O)c1O)CCN2Cc1ccccc1 [Example 19, N-(4-Fluoro-2-(1H-1,2,4-triazol-1-yl)benzyl)-1-benzyl-6-hydroxy-5-oxo-1,2,3,5-tetrahydroimidazo[1,2-a]pyrimidine-7-carboxamide]	10 to 30	242 °C (dec.)
